From ChEMBL document CHEMBL1201862, “PubChem BioAssay data set” (2004)
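Assay format: 96-well plates, 48-hour exposure. Here, GI50 denotes the concentration required for 50% inhibition of growth.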 Activity calls are given as the source filed them. Rule as the data show it: active = GI50 up to about 1.1 µM and inactive = higher.

Key:
Test in all cases: DTP human tumour cell line panel, 48 h
EKVX = test system: EKVX
HCT-116 = test system: HCT-116
HL-60 = test system: HL-60
M14 = test system: M14
MOLT-4 = test system: MOLT-4
NCI-H522 = test system: NCI-H522
OVCAR-3 = test system: OVCAR-3
RPMI-8226 = test system: RPMI-8226
SF-539 = test system: SF-539
TK-10 = test system: TK-10
UACC-257 = test system: UACC-257
UACC-62 = test system: UACC-62
UO-31 = test system: UO-31
A498 = test system: A498
OVCAR-4 = test system: OVCAR-4
SR = test system: SR

Measured: GI50

Cc1ccccc1NC(=O)c1cc2cc(/N=N/c3ccccc3C(=O)O)ccc2oc1=O
inactive: EKVX 48.6 µM | HCT-116 20.7 µM | HL-60 19.5 µM | M14 16.7 µM | MOLT-4 18.7 µM | NCI-H522 12.3 µM | OVCAR-3 34.8 µM | RPMI-8226 15.9 µM | SF-539 18 µM | TK-10 48.2 µM | UACC-257 10.3 µM | UACC-62 4.7 µM | UO-31 20.6 µM

CCCCOC(=O)NC(=O)c1cn(C2CCCCC2)c(=O)[nH]c1=O
inactive: A498 17.1 µM | EKVX > 100 µM | HCT-116 21.5 µM | HL-60 > 100 µM | M14 50.7 µM | MOLT-4 98.6 µM | NCI-H522 26.9 µM | OVCAR-3 40.6 µM | OVCAR-4 21.8 µM | RPMI-8226 60.8 µM | SF-539 18.5 µM | TK-10 46.9 µM | UACC-257 > 100 µM | UACC-62 47.2 µM | UO-31 21.3 µM

Cc1ccc(S(=O)(=O)OCC23CCC(CC2)C2CC23)cc1 (centres undefined)
inactive: A498 43.3 µM | HCT-116 53.8 µM | HL-60 17.4 µM | M14 92 µM | MOLT-4 35.4 µM | OVCAR-3 31.9 µM | OVCAR-4 46 µM | RPMI-8226 25.9 µM | SR 30.2 µM | TK-10 > 100 µM | UACC-257 28.6 µM | UACC-62 > 100 µM | UO-31 34.4 µM

CCCCCCCCCCCCCC(=O)OC1C(CO)OC(=O)C1O (centres undefined)
inactive: A498 > 100 µM | EKVX > 100 µM | HCT-116 > 100 µM | HL-60 34.3 µM | M14 > 100 µM | MOLT-4 > 100 µM | OVCAR-3 > 100 µM | OVCAR-4 > 100 µM | RPMI-8226 > 100 µM | SF-539 > 100 µM | TK-10 > 100 µM | UACC-257 > 100 µM | UACC-62 > 100 µM | UO-31 51.8 µM

O=C(O)C1=C(C(=O)Nc2ccc(NC(=O)C3=C(C(=O)O)C4C=CC3C4)cc2)C2C=CC1C2
inactive: A498 > 100 µM | EKVX > 100 µM | HCT-116 > 100 µM | HL-60 > 100 µM | M14 > 100 µM | MOLT-4 > 100 µM | OVCAR-3 > 100 µM | OVCAR-4 > 100 µM | RPMI-8226 > 100 µM | SF-539 > 100 µM | SR > 100 µM | TK-10 > 100 µM | UACC-257 > 100 µM | UACC-62 > 100 µM | UO-31 > 100 µM

CCc1cccc(C)c1NC(=O)CC1C(=O)Nc2ccccc2[S+]1[O-] (centres undefined)
inactive: HCT-116 35.8 µM | HL-60 28.4 µM | M14 31.2 µM | MOLT-4 37.1 µM | NCI-H522 31.1 µM | OVCAR-3 57.3 µM | OVCAR-4 28.3 µM | RPMI-8226 33 µM | SF-539 29.2 µM | SR 34 µM | TK-10 > 100 µM | UACC-257 31.8 µM | UO-31 98.2 µM

CN(C)CCC(/C=C/c1ccccc1)=N\Nc1ccc(Cl)cc1
inactive: A498 7.66 µM | EKVX 2.49 µM | HCT-116 3.51 µM | HL-60 2.18 µM | M14 3.18 µM | MOLT-4 2.23 µM | NCI-H522 3.24 µM | OVCAR-3 8.69 µM | OVCAR-4 5.21 µM | RPMI-8226 1.9 µM | SF-539 2.25 µM | TK-10 2.89 µM | UACC-257 4.18 µM | UACC-62 2.03 µM | UO-31 1.71 µM

Cn1c(=O)nc2n(-c3ccc(Cl)cc3)c(-c3ccccc3)c(-c3ccccc3)nc-2c1=O
inactive: A498 49.3 µM | EKVX 47 µM | HL-60 18.3 µM | M14 20 µM | MOLT-4 16.5 µM | NCI-H522 36.7 µM | OVCAR-3 21.7 µM | OVCAR-4 29.5 µM | RPMI-8226 22.1 µM | SF-539 23 µM | TK-10 51.2 µM | UACC-257 24.3 µM | UACC-62 14.5 µM | UO-31 18.4 µM

CNc1nnnn1C1OC(CO)C(O)C1O (centres undefined)
inactive: A498 > 100 µM | EKVX > 100 µM | HCT-116 > 100 µM | M14 > 100 µM | MOLT-4 > 100 µM | NCI-H522 > 100 µM | OVCAR-3 > 100 µM | RPMI-8226 > 100 µM | SF-539 > 100 µM | TK-10 > 100 µM | UACC-257 > 100 µM | UACC-62 > 100 µM | UO-31 > 100 µM

N#Cc1c2c(c(N=[N+]=[N-])n3c1nc1ccccc13)CCCC2
inactive: A498 2.65 µM | EKVX 16.9 µM | HCT-116 1.43 µM | HL-60 2.32 µM | M14 1.93 µM | MOLT-4 1.62 µM | OVCAR-3 3.37 µM | OVCAR-4 2.49 µM | RPMI-8226 1.71 µM | SF-539 1.93 µM | SR 2.1 µM | TK-10 2.77 µM | UACC-257 1.71 µM | UO-31 1.94 µM
